Reference: article PMC5775428, “Towards an experimental classification system for membrane active peptides” (Scientific Reports, 2018)
Where two headings read alike, the source gives them in different places.

Assays:
[1] = test system: Pseudomonas syringae pv. tabaci
Summary of the method: (§1)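 MICs determined per CLSI M7-A10 (bacteria) and M27-A3 (yeasts) protocols, peptides tested at 0.5 to 256 μM. MIC taken as the lowest concentration with no cells seen by optical microscopy; three biological repeats with 2 technical replicates each.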

Escherichia coli = test system: Escherichia coli
Summary of the method: as §1

Erwinia carotovora = test system: Erwinia carotovora
Summary of the method: as §1

Bacillus cereus = test system: Bacillus cereus
Summary of the method: as §1

Bacillus subtilis = conditions: Bacillus subtilis; for Minimum inhibitory concentration, Average: average of triplicates
Summary of the method: as §1

Pseudomonas aeruginosa = test system: Pseudomonas aeruginosa
Summary of the method: as §1

Staphylococcus aureus = test system: Staphylococcus aureus
Summary of the method: as §1

Cryptococcus neoformans = conditions: Cryptococcus neoformans; for Minimum inhibitory concentration, Average: average of triplicates
Summary of the method: as §1

Candida albicans = test system: Candida albicans
Summary of the method: as §1

Xanthomonas campestris = conditions: for Minimum inhibitory concentration, Average: average of triplicates
Summary of the method: as §1

[2] = Pseudomonas syringae pv. tabaci, CLSI M7-A10, triplicate 1
[3] = Pseudomonas syringae pv. tabaci, average of triplicates
[4] = Pseudomonas syringae pv. tabaci, triplicate 2
[5] = Pseudomonas syringae pv. tabaci, triplicate 3
[6] = Escherichia coli, CLSI M7-A10, triplicate 1
[7] = Escherichia coli, average of triplicates
[8] = Erwinia carotovora, CLSI M7-A10, triplicate 1
[9] = Erwinia carotovora, average of triplicates
[10] = Erwinia carotovora, triplicate 2
[11] = Erwinia carotovora, triplicate 3
[12] = Bacillus cereus, CLSI M7-A10, triplicate 1
[13] = Bacillus cereus, average of triplicates
[14] = Pseudomonas aeruginosa, CLSI M7-A10, triplicate 1
[15] = Pseudomonas aeruginosa, average of triplicates
[16] = Pseudomonas aeruginosa, triplicate 2
[17] = Pseudomonas aeruginosa, triplicate 3
[18] = Staphylococcus aureus, CLSI M7-A10, triplicate 1
[19] = Staphylococcus aureus, average of triplicates
[20] = Staphylococcus aureus, triplicate 2
[21] = Staphylococcus aureus, triplicate 3
[22] = Candida albicans, CLSI M27-A3, 0.5 to 256 μM tested, triplicate 1, also published in ref 7
[23] = Candida albicans, average of triplicates

Sequence | Minimum inhibitory concentration (Bacillus subtilis; CLSI M7-A10, triplicate 1) [µM] | Minimum inhibitory concentration, Average (Bacillus subtilis) [µM] | Minimum inhibitory concentration (Bacillus subtilis; triplicate 2) [µM] | Minimum inhibitory concentration (Bacillus subtilis; triplicate 3) [µM] | Minimum inhibitory concentration (Staphylococcus aureus; [18]) [µM] | Minimum inhibitory concentration, Average (Staphylococcus aureus; [19]) [µM] | Minimum inhibitory concentration (Staphylococcus aureus; [20]) [µM] | Minimum inhibitory concentration (Staphylococcus aureus; [21]) [µM] | Minimum inhibitory concentration (Cryptococcus neoformans; CLSI M27-A3, triplicate 1) [µM] | Minimum inhibitory concentration, Average (Cryptococcus neoformans) [µM] | Minimum inhibitory concentration (Cryptococcus neoformans; triplicate 2) [µM] | Minimum inhibitory concentration (Cryptococcus neoformans; triplicate 3) [µM] | Minimum inhibitory concentration (Candida albicans; [22]) [µM] | Minimum inhibitory concentration, Average (Candida albicans; [23]) [µM] | Minimum inhibitory concentration (Candida albicans; Candida albicans, triplicate 2) [µM] | Minimum inhibitory concentration (Candida albicans; Candida albicans, triplicate 3) [µM] | Minimum inhibitory concentration (Xanthomonas campestris; CLSI M7-A10, triplicate 1) [µM] | Minimum inhibitory concentration, Average (Xanthomonas campestris) [µM] | Minimum inhibitory concentration (Xanthomonas campestris; triplicate 2) [µM] | Minimum inhibitory concentration (Xanthomonas campestris; triplicate 3) [µM] | also measured
KVLSKVHTLLKAVLAL [At02] | 1 | 1.0 | 1 | 1 | 4 | 4.0 | 4 | 4 | 4 | 4.0 | 4 | 4 | 8 | 8.0 | 8 | 8 | 1 | 1.0 | 1 | 1 | Minimum inhibitory concentration [1, 2]: 4 µM; Minimum inhibitory concentration, Average [1, 3]: 4.0 µM; Minimum inhibitory concentration [1, 4]: 4 µM; Minimum inhibitory concentration [1, 5]: 4 µM; Minimum inhibitory concentration (Escherichia coli; [6]): 2 µM; Minimum inhibitory concentration, Average (Escherichia coli; [7]): 2.0 µM; Minimum inhibitory concentration (Escherichia coli; Escherichia coli, triplicate 2): 2 µM; Minimum inhibitory concentration (Escherichia coli; Escherichia coli, triplicate 3): 2 µM; Minimum inhibitory concentration (Erwinia carotovora; [8]): 1 µM; Minimum inhibitory concentration, Average (Erwinia carotovora; [9]): 1.0 µM; Minimum inhibitory concentration (Erwinia carotovora; [10]): 1 µM; Minimum inhibitory concentration (Erwinia carotovora; [11]): 1 µM; Minimum inhibitory concentration (Bacillus cereus; [12]): 2 µM; Minimum inhibitory concentration, Average (Bacillus cereus; [13]): 3.3 µM; Minimum inhibitory concentration (Bacillus cereus; Bacillus cereus, triplicate 2): 4 µM; Minimum inhibitory concentration (Bacillus cereus; Bacillus cereus, triplicate 3): 4 µM; Minimum inhibitory concentration (Pseudomonas aeruginosa; [14]): 4 µM; Minimum inhibitory concentration, Average (Pseudomonas aeruginosa; [15]): 5.3 µM; Minimum inhibitory concentration (Pseudomonas aeruginosa; [16]): 4 µM; Minimum inhibitory concentration (Pseudomonas aeruginosa; [17]): 8 µM
GFKLGRKLVKVFKWII [Gr01] | 1 | 1.0 | 1 | 1 | 0.5 | 0.8 | 1 | 1 | 1 | 1.0 | 1 | 1 | 1 | 1.0 | 1 | 1 | 1 | 1.0 | 1 | 1 | Minimum inhibitory concentration [1, 2]: 1 µM; Minimum inhibitory concentration, Average [1, 3]: 1.0 µM; Minimum inhibitory concentration [1, 4]: 1 µM; Minimum inhibitory concentration [1, 5]: 1 µM; Minimum inhibitory concentration (Escherichia coli; [6]): 0.5 µM; Minimum inhibitory concentration, Average (Escherichia coli; [7]): 0.5 µM; Minimum inhibitory concentration (Escherichia coli; Escherichia coli, triplicate 2): 0.5 µM; Minimum inhibitory concentration (Escherichia coli; Escherichia coli, triplicate 3): 0.5 µM; Minimum inhibitory concentration (Erwinia carotovora; [8]): 0.5 µM; Minimum inhibitory concentration, Average (Erwinia carotovora; [9]): 0.5 µM; Minimum inhibitory concentration (Erwinia carotovora; [10]): 0.5 µM; Minimum inhibitory concentration (Erwinia carotovora; [11]): 0.5 µM; Minimum inhibitory concentration (Bacillus cereus; [12]): 1 µM; Minimum inhibitory concentration, Average (Bacillus cereus; [13]): 1.0 µM; Minimum inhibitory concentration (Bacillus cereus; Bacillus cereus, triplicate 2): 1 µM; Minimum inhibitory concentration (Bacillus cereus; Bacillus cereus, triplicate 3): 1 µM; Minimum inhibitory concentration (Pseudomonas aeruginosa; [14]): 2 µM; Minimum inhibitory concentration, Average (Pseudomonas aeruginosa; [15]): 3.3 µM; Minimum inhibitory concentration (Pseudomonas aeruginosa; [16]): 4 µM; Minimum inhibitory concentration (Pseudomonas aeruginosa; [17]): 4 µM
GLYNFIKVLGRTVFGLYKQF [At04] | 256 | 256.0 | 256 | 256 | 16 | 16.0 | 16 | 16 | 64 | 64.0 | 64 | 64 |  |  |  |  | 512 | 512.0 | 512 | 512 | Minimum inhibitory concentration [1]: 512 µM; Minimum inhibitory concentration, Average [1]: 512.0 µM; Minimum inhibitory concentration (Escherichia coli): 512 µM; Minimum inhibitory concentration, Average (Escherichia coli): 512.0 µM; Minimum inhibitory concentration (Erwinia carotovora): 512 µM; Minimum inhibitory concentration, Average (Erwinia carotovora): 512.0 µM; Minimum inhibitory concentration (Bacillus cereus): 512 µM; Minimum inhibitory concentration, Average (Bacillus cereus): 512.0 µM; Minimum inhibitory concentration (Pseudomonas aeruginosa): 512 µM; Minimum inhibitory concentration, Average (Pseudomonas aeruginosa): 512.0 µM; Minimum inhibitory concentration (Candida albicans): 512 µM; Minimum inhibitory concentration, Average (Candida albicans): 512.0 µM
IVNHLVKLFDKGLNSIVNLR [Tc05] | 64 | 64.0 | 64 | 64 |  |  |  |  | 128 | 128.0 | 128 | 128 | 128 | 128.0 | 128 | 128 | 512 | 512.0 | 512 | 512 | Minimum inhibitory concentration [1]: 512 µM; Minimum inhibitory concentration, Average [1]: 512.0 µM; Minimum inhibitory concentration (Escherichia coli): 512 µM; Minimum inhibitory concentration, Average (Escherichia coli): 512.0 µM; Minimum inhibitory concentration (Erwinia carotovora): 512 µM; Minimum inhibitory concentration, Average (Erwinia carotovora): 512.0 µM; Minimum inhibitory concentration (Bacillus cereus): 512 µM; Minimum inhibitory concentration, Average (Bacillus cereus): 512.0 µM; Minimum inhibitory concentration (Pseudomonas aeruginosa): 512 µM; Minimum inhibitory concentration, Average (Pseudomonas aeruginosa): 512.0 µM; Minimum inhibitory concentration (Staphylococcus aureus): 512 µM; Minimum inhibitory concentration, Average (Staphylococcus aureus): 512.0 µM
